The target of one assay is B-Raf (Homo sapiens, UniProt P15056). The experiment in a line: B-Raf kinase activity assay (AlphaScreen, biotin-MEK1 substrate). The settings on record: 100 μM ATP, 100 nM biotin-MEK1, 45 minutes at room temperature; read-out: Biochemical activity (IC50 μM) B-Raf. A digest of the protocol:
(§1)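 AlphaScreen detection of phospho-MEK1 uses anti-phospho-MEK1/2 antibody and donor/acceptor beads, incubated 3 h. The kinase step runs 45 min at room temperature with 0.1 ng enzyme, 100 nM biotin-MEK1 and 100 μM ATP in 50 mM HEPES pH 7.0. IC50 is derived from eight compound concentrations.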
(Alpha assays give light when donor and acceptor beads are brought close together.)

The target of another assay is B-Raf V600E (Homo sapiens, UniProt P15056, V600E). The assay can be described thus: B-Raf V600E kinase activity assay (AlphaScreen, biotin-MEK1 substrate). The settings on record: 100 μM ATP, 100 nM biotin-MEK1, 45 minutes at room temperature, read-out: Biochemical activity (IC50 μM) V600E. Put shortly:
as §1

The next assay has as its target c-Raf-1 (Homo sapiens, UniProt P04049). The assay can be described thus: c-Raf-1 kinase activity assay (AlphaScreen, biotin-MEK1 substrate). The settings on record: 100 μM ATP, 100 nM biotin-MEK1, 45 minutes at room temperature; read-out: Biochemical activity (IC50 μM) c-Raf-1. Put shortly: as §1
In assay [1] the test system is A375 melanoma (B-Raf V600E mutation). The assay can be described thus: A375 cell growth inhibition (ATPlite luminescence). The assay is classed as cell-based. The following applies: Homo sapiens, A-375, 72 h, A375 cells, incubated 3 days with compound. The protocol:
Compounds are assessed in a variety of cell based assays. For example human cell lines with B-Raf V600E mutation (A375 melanoma, SKMEL3 melanoma, and COLO205 colon adenocarcinoma), as well as tumorigenic cell lines with wild-type B-RAF (SW620 colon adenocarcinoma) or with Ras mutations (SKMEL2 melanoma and IPC298 melanoma). Similar assays may be used to assess additional tumorigenic cell lines with Ras mutations, including, but not limited to, M202, M207, M243, M244, M296, S117, HCT116, HCT15, DLD1, MiaPaCa, A549, NCI-H23, NCI-H460, HOP62, MDA-MB231, Hs-578T, HL60, MOLT-4, and CCRF-CEM.
On day 1, cells are counted, then centrifuged in a conical tube for 5 minutes at 1000 rpm. The supernatant is removed and cells are re-suspended as follows: • SW620 (ATCC catalog #CCL-27): resuspend in Leibovitz's L-15 medium, 2 mM L-glutamine, 10% fetal bovine serum to 6×10^4 cells/mL. • A375 (ATCC catalog #CRL-1619): resuspend in Dulbecco's modified Eagle's medium, 4 mM L-glutamine, 4.5 g/L D-glucose, 10% fetal bovine serum to 6×10^4 cells/mL. • COLO205 (ATCC catalog #CCL-222): resuspend in RPMI 1640, 2 mM L-glutamine, 1.5 g/L sodium bicarbonate, 4.5 g/L D-glucose, 10 mM HEPES, 1.0 mM sodium pyruvate, 10% fetal bovine serum to 6×10^4 cells/mL. • SKMEL2 (ATCC catalog #HTB-68): resuspend in Minimum Eagle essential medium, 2 mM L-glutamine, 1.5 g/L sodium bicarbonate, 0.1 mM non-essential amino acids, 1.0 mM sodium pyruvate, 10% fetal bovine serum to 6×10^4 cells/mL. • SKMEL3 (ATCC catalog #HTB-69): resuspend in McCoy's 5A medium, 1.5 mM L-glutamine, 15% fetal bovine serum to 6×10^4 cells/mL. • IPC298 (DSMZ catalog #ACC 251): resuspend in RPMI 1640, 2 mM L-glutamine, 10% fetal bovine serum to 6×10^4 cells/mL.
The cells are plated, 50 μL in each well of a 96-well dish (Corning 3610) and incubated at 37° C. in 5% CO2 overnight, cells plated to a final concentration of cells as follows:
On day 2, compound at a maximum concentration of 5 mM is serially diluted 1:3 (e.g. 10 μL with 30 μL dimethyl sulfoxide) for a total of 8 point titration with DMSO as a control. A 1 μL aliquot of each dilution point and control is added to 249 μL growth media and 50 μL is added to a well containing cells, providing 10 μM compound at the maximum concentration point. The cells are incubated for 3 days at 37° C. in 5% CO2.
On day 5, ATPlite 1 step Luminescence Assay System (Perkin Elmer #6016739) is brought to room temperature along with the cell cultures. ATPlite is added 25 μL to each well, shake for 2 minutes, and the cells are incubated at room temperature for 10 minutes, then luminescence is read on Safire reader. The measured luminescence correlates directly with cell number, such that the reading as a function of compound concentration is used to determine the IC50 value.
It is understood that the results of these assays may vary as assay conditions are varied. Inhibition levels determined under the conditions described herein represent a relative activity for the compounds tested under the specific conditions employed. The cell based assays are likely to show variability due to the complexity of the system and the sensitivity thereof to any changes in the assay conditions. […] Results for compounds that are tested and show substantially no inhibition below the highest tested concentration are represented as “-” in the tables below. In some instances, the compounds were not tested in all of the assays, or assay results were not valid, as indicated by NA in the tables below.

The test system of assay [2] is COLO205 colon adenocarcinoma (B-Raf V600E mutation). The experiment in a line: COLO205 cell growth inhibition (ATPlite luminescence). The format is cell-based. The following applies: Homo sapiens, COLO 205, 72 h, COLO205 cells, incubated 3 days with compound. A digest of the protocol:
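Cells seeded at 6×10^4 cells/mL in line-specific medium with 10% FBS, held overnight at 37°C, then given an 8-point 1:3 compound titration (top 10 μM final) for 3 days at 37°C, 5% CO2. ATP content read by ATPlite luminescence as a cell-number proxy; IC50 fitted from luminescence versus concentration.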

In patent US9440969B2, “Compounds and methods for kinase modulation, and indications therefor” (PLEXXIKON INC., priority 2009, dated 2016) one finds IC50 data, which are given here for 1 compound.

Chain of B-Raf (P15056 whole entry): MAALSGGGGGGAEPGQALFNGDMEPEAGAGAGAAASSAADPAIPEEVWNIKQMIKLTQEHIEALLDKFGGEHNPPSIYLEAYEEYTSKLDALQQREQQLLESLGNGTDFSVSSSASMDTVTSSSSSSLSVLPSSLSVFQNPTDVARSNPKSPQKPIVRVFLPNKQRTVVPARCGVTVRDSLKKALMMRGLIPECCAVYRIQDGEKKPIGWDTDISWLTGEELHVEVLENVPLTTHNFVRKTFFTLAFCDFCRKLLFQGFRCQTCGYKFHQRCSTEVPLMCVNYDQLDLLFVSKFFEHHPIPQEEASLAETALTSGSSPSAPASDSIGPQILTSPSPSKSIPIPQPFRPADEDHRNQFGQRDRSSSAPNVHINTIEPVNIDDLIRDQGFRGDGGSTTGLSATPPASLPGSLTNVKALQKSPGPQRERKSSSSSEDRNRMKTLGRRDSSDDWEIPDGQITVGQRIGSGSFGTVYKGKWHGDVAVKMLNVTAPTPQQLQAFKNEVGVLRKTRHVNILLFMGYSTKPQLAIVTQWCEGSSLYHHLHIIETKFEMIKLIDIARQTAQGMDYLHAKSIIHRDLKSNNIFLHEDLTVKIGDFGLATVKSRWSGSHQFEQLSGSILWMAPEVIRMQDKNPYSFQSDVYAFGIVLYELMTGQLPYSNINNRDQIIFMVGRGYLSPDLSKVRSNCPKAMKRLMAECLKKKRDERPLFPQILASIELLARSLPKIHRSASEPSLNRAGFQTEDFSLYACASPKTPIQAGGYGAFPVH
Chain of c-Raf-1 (P04049 whole entry Y340D/Y341D, form open): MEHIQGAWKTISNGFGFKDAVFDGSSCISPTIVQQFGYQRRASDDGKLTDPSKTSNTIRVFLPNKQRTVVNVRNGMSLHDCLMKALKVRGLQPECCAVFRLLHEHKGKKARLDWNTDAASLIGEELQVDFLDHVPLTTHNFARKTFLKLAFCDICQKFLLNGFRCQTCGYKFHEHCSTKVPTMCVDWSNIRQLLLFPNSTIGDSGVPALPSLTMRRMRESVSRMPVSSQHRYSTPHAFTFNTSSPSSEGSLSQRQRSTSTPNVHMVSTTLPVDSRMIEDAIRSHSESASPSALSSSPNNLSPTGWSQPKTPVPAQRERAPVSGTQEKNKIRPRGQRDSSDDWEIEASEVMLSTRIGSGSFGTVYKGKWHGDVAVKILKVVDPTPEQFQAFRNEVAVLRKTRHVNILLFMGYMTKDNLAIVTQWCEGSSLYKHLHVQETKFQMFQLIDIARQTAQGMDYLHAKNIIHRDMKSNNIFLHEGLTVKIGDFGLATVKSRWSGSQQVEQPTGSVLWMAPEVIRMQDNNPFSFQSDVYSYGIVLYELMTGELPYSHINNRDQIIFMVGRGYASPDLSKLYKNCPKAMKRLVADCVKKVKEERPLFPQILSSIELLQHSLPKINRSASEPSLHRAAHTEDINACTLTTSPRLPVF
Chain of B-Raf V600E (P15056 whole entry V600E): as the sequence (P15056 whole entry) above, with V600E counted along it

Consider `CCCS(=O)(=O)Nc1ccc(F)c(C(=O)c2c[nH]c3ncc(-c4cnc(-n5ccccc5=O)cn4)cc23)c1F` [P-1600, Propane-1-sulfonic acid (2,4-difluoro-3-{5-[5-(2-oxo-2H-pyridin-1-yl)-pyrazin-2-yl]-1H-pyrrolo[2,3-b]pyridine-3-carbonyl}-phenyl)-amide], for which the IC50 was below 0.1 µM on B-Raf; below 0.1 µM at B-Raf V600E; below 0.1 µM at c-Raf-1; above 1 µM in assay [1]; below 1 µM in assay [2].

As a reminder, the IC50 is the point on the concentration scale where inhibition reaches its midpoint.
